{"source": "paper PMC10713593", "about": "“Staphylococcus aureus functional amyloids catalyze degradation of β-lactam antibiotics” (Nature Communications, 2023)", "key": {"[1]": {"experiment": "Nitrocefin hydrolysis kinetics (absorbance of degraded nitrocefin at 480 nm; initial rates V0, Michaelis-Menten fit)", "type": "biochemical", "parameters": "Initial nitrocefin-degradation reaction rate, V0: unit not given here", "conditions": "for Initial nitrocefin-degradation reaction rate, V0: Hepes pH 7.4, average of the six runs", "in_short": "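Nitrocefin (up to 360 µM, diluted on ice in 50 mM Hepes pH 7.4) mixed with pre-incubated PSMα (510 µM solution); A480 read every 20 s for 2 h at 20 °C. V0 from first 15 min slopes, blank self-hydrolysis subtracted, fitted to Michaelis–Menten by non-linear regression; mean ± SEM, ≥5 repeats.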"}, "[2]": {"type": "physicochemical", "conditions": "PSMα3 preformed fibrils 400 µM, titration pH 3 to 10 with NaOH 0.05M (Fig. S10)"}, "[3]": {"tested_on": "T1, a2-PEG17K", "T1 construct": "synthetic peptide, pre-assembled; modification not described beyond the name", "experiment": "Source-data fits for PSMα variants (170 µM): initial rates of nitrocefin hydrolysis (up to 240 µM) by absorbance at 480 nm in 50 mM Hepes pH 7.4 at 20 °C.", "type": "biochemical", "conditions": "read-out: Km [uM] (AVG, source data sheet 2c,d_titration of nitrocefin)", "experimental": "Nitrocefin, a β-lactam widely used as a surrogate substrate of Penicillin in β-lactamase activity assay, was used as a substrate. NC degradation was monitored for 2 h. Nitrocefin stock solution was dissolved in acetonitrile (20 mM) and then diluted with Hepes buffer (50 mM, pH 7.4) to nitrocefin concentration of 360 µM (further dilutions to lower concentrations were made with the 360 µM NC stock). All nitrocefin samples were kept on ice in cold conditions and any further dilution or mixing was performed in ice-cold conditions to avoid self-hydrolysis background reaction. […] Immediately after mixing the samples, the plate was transferred to 20̊ °C pre-cooled plate reader (Multiskan GO, Thermo Scientific, Waltham, MA) and shaken slowly for 10 s. Then, the absorbance of degraded nitrocefin was measured for 2 h at interval of 20 s at λ = 480 nm. Initial production rates (V0) were calculated by slope of the initial linear range of degraded-nitrocefin production at the first 15 min. […] The initial rate calculations were performed while also subtracting the self-degradation of the substrate, to ensure that this product absorbance is a result of PSMα presence.\nThe initial rates of degraded-nitrocefin production were calculated from the slopes of the first 15 min of measurement as reported above. […]"}, "[4]": {"tested_on": "Staphylococcus aureus (ATCC 25923)", "experiment": "Staphylococcus aureus sensitivity to nitrocefin in the presence of PSMα (growth curves, OD 600 nm)", "type": "cell-based", "conditions": "nitrocefin 100 µg/mL, LB, 37 °C, 16 h", "experimental": "The antimicrobial activity of nitrocefin against Staphylococcus aureus (ATCC 25923) was examined in the presence or absence of pre-assembled PSMα3, while monitoring the growth of the bacterial strain. PSMα3 fibrils were prepared as described above, in aqueous solution, in concentration of 100 µM. The bacterial growth was monitored in bacterial growth curves prepared as following: 3 µL of S. aureus microbial culture (OD = 1) were added to 100 µL LB media (Difco Luria-Bertani medium, BD, France). The bacterial solution was supplemented with 100 µM of the PSMα3 solution (dissolved and preincubated in DIW) or equivalent volume of DIW as a control. Then, aqueous solution of nitrocefin was added to each sample, generating final concentration of 100 µg/mL. As control, the growth curve of S. aureus was examined without any additives. All the samples were incubated while shaking in sterile clear 96-well plates at 37 °C for 16 h, and the absorbance at 600 nm was monitored every 20 min steps by microplate reader (Varioskan Flash, Thermo Scientific, Waltham, MA). Measurements were performed at three biological replicates, each with five technical replicates. The values were plotted in the graph as mean ± SD of representative results.\nFigure S15. The effects of PSMα1 and PSMα4 upon nitrocefin in physiological scenarios. […]"}, "[5]": {"type": "biochemical", "conditions": "Aβ42 fibrils 100 µM, nitrocefin 170 µM, A480, two hours (Fig. S2)"}}, "note": "Values joined by “and” are separate entries in the source; they are usually repeats but may differ in a detail not shown here. Equal values may be shown once.", "data": [{"compound": "CSCC[C@H](N)C(=O)N[C@@H](CCC(=O)O)C(=O)N[C@@H](Cc1ccccc1)C(=O)N[C@H](C(=O)N[C@@H](C)C(=O)N[C@@H](CCCCN)C(=O)N[C@@H](CC(C)C)C(=O)N[C@@H](Cc1ccccc1)C(=O)N[C@@H](CCCCN)C(=O)N[C@@H](Cc1ccccc1)C(=O)N[C@@H](Cc1ccccc1)C(=O)N[C@@H](CCCCN)C(=O)N[C@@H](CC(=O)O)C(=O)N[C@@H](CC(C)C)C(=O)N[C@@H](CC(C)C)C(=O)NCC(=O)N[C@@H](CCCCN)C(=O)N[C@@H](Cc1ccccc1)C(=O)N[C@@H](CC(C)C)C(=O)NCC(=O)N[C@@H](CC(N)=O)C(=O)N[C@@H](CC(N)=O)C(=O)O)C(C)C", "note": "[PSMα3]", "values": [{"measurement": "ATR-FTIR amide-I peak/maximum", "result": "1660 cm⁻¹ and 1650 cm⁻¹"}, {"measurement": "Initial nitrocefin-degradation reaction rate, V0", "setting": "[1]; PSMα 4.01424 uM, nitrocefin 60 µM", "result": 0.4242}, {"measurement": "Initial nitrocefin-degradation reaction rate, V0", "setting": "[1]; PSMα 6.02136 uM, nitrocefin 60 µM", "result": -0.2476}, {"measurement": "Initial nitrocefin-degradation reaction rate, V0", "setting": "[1]; PSMα 9.03205 uM, nitrocefin 60 µM", "result": 0.6132}, {"measurement": "Initial nitrocefin-degradation reaction rate, V0", "setting": "[1]; PSMα 13.5481 uM, nitrocefin 60 µM", "result": 1.028}, {"measurement": "Initial nitrocefin-degradation reaction rate, V0", "setting": "[1]; PSMα 20.3221 uM, nitrocefin 60 µM", "result": 0.7515}, {"measurement": "Initial nitrocefin-degradation reaction rate, V0", "setting": "[1]; PSMα 30.4832 uM, nitrocefin 60 µM", "result": -1.835}, {"measurement": "Initial nitrocefin-degradation reaction rate, V0", "setting": "[1]; PSMα 45.7247 uM, nitrocefin 60 µM", "result": 5.684}, {"measurement": "Initial nitrocefin-degradation reaction rate, V0", "setting": "[1]; PSMα 68.5871 uM, nitrocefin 60 µM", "result": 8.525}, {"measurement": "Initial nitrocefin-degradation reaction rate, V0", "setting": "[1]; PSMα 102.881 uM, nitrocefin 60 µM", "result": 29.1642}, {"measurement": "Initial nitrocefin-degradation reaction rate, V0", "setting": "[1]; PSMα 154.321 uM, nitrocefin 60 µM", "result": 32.1116}, {"measurement": "Initial nitrocefin-degradation reaction rate, V0", "setting": "[1]; PSMα 231.481 uM, nitrocefin 60 µM", "result": 46.236}, {"measurement": "Initial nitrocefin-degradation reaction rate, V0", "setting": "[1]; PSMα 347.222 uM, nitrocefin 60 µM", "result": 69.7594}, {"measurement": "nitrocefin degradation yield (turnover)", "setting": "[1]; nitrocefin 60 µM, PSMα assemblies 350 µM, Hepes 50 mM pH 7.4, 20 °C, A480, monitored 2 h (Fig. 2a)", "result": 75, "unit": "%"}, {"measurement": "initial rate of nitrocefin degradation reaction (V0)", "setting": "[1]; peptide 170 µM, initial nitrocefin 107 µM, Hepes 50 mM pH 7.4, 20 °C, first 15 min (Fig. 3f)", "result": "around 60 µM/h"}, {"measurement": "time to degrade the entire nitrocefin reservoir", "setting": "[1]; peptide 170 μM, nitrocefin 107 µM, Hepes pH 7.4 (Fig. 3e)", "result": "~ 40 min"}, {"measurement": "pKa of the amines (first value)", "setting": "[2]", "result": 7.8}, {"measurement": "pKa of the amines (second value)", "setting": "[2]", "result": 8.1}]}, {"compound": "O=C(Cc1cccs1)N[C@@H]1C(=O)N2C(C(=O)O)=C(/C=C/c3ccc([N+](=O)[O-])cc3[N+](=O)[O-])CS[C@H]12", "note": "[nitrocefin, 3-(2,4-Dinitrostyryl)-(6R,7R)-7-(2-thienylacetamido)-ceph-3-em-4-carboxylic acid]", "values": [{"measurement": "Km", "setting": "[3]", "result": 2740, "unit": "µM"}]}, {"compound": "O=C(Cc1cccs1)N[C@@H]1C(=O)N2C(C(=O)O)=C(C=Cc3ccc([N+](=O)[O-])cc3[N+](=O)[O-])CS[C@H]12", "note": "[nitrocefin, 3-(2,4-Dinitrostyryl)-(6R, 7R)−7-(2-thienylacetamido)-ceph-3-em-4-carboxylic Acid]", "values": [{"measurement": "effect of nitrocefin on bacterial growth", "setting": "[4]", "result": "significantly reduced bacterial proliferation"}]}, {"compound": "β-amyloid fibrils: Amyloid-β sequence 1-42 fibrils, control cross-β amyloid", "values": [{"measurement": "β-lactam (nitrocefin) degradation by control amyloid", "setting": "[5]", "result": "very low β-lactam degradation"}]}]}
